Article PMC12064818, “A general assay platform to study protein pharmacology using ligand-dependent structural dynamics” (Nature Communications, 2025)

Biological target: T1, FLuc-C-HiBiT (Photinus pyralis, UniProt P08659)
T1 construct: firefly luciferase with C-terminal HiBiT tag, E. coli expressed
Assay: biochemical
Conditions: enzyme activity, 10 uM ATP; read-out: IC50 or SDR50 (mM) / FLuc E

T1 sequence (P08659 whole entry, looked up): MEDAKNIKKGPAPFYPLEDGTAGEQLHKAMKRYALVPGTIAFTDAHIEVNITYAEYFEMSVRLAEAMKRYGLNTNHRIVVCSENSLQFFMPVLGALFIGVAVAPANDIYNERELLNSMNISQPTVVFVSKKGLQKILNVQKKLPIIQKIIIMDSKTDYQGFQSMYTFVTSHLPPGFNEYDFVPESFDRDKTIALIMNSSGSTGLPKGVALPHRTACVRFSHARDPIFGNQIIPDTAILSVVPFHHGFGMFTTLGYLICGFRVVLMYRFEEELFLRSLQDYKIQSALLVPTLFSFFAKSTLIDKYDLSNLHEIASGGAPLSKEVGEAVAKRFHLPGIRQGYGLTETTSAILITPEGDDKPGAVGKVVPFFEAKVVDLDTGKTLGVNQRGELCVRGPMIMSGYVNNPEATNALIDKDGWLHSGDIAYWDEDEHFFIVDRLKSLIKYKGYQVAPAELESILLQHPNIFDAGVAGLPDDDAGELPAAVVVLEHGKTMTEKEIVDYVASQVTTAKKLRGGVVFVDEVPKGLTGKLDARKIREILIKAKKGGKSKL

SMILES | IC50 [mM]
OC1(CN2CCCCC2)CCN(c2nc3ccccc3s2)C1 (stereo not shown) [NCGC00437487-01] | 0.0157
COc1ccc(C(=O)NC2CCCN(c3cc(-c4ccc(F)cc4)n[nH]3)C2)cc1OC (stereo not shown) [NCGC00437488-01] | 0.0111
COc1ccc(-c2cc(N3CCCC(NC(=O)c4ccc5c(c4)OCO5)C3)[nH]n2)cc1 (stereo not shown) [NCGC00437602-01] | 0.0111
CN(C)C1CCN(c2ccc(-c3nc(CCCc4ccccc4)no3)cn2)CC1 [NCGC00437613-01] | > 0.03
COc1ccc(-c2cc(N3CCCC(NC(=O)c4ccc(OC)cc4OC)C3)[nH]n2)cc1 (stereo not shown) [NCGC00437622-01] | 0.0111
COc1ccc(-c2cc(N3CCCC(NC(=O)c4ccncc4)C3)[nH]n2)cc1 (stereo not shown) [NCGC00437632-01] | 0.0111
COc1ccc(-c2cc(N3CCCC(NC(=O)c4cccc5[nH]ccc45)C3)[nH]n2)cc1 (stereo not shown) [NCGC00437654-01] | 0.014
COc1ccc(-c2cc(N3CCCC(NC(=O)c4c[nH]c5ccccc45)C3)[nH]n2)cc1 (stereo not shown) [NCGC00437686-01] | 0.0111
Cc1ccc2nc(C(=O)N3CCCC3c3cc(C(C)C)on3)cn2c1 (stereo not shown) [NCGC00437737-01] | 0.0157
CC(=O)NC1CCN(Cc2cn(-c3ccc(C)cc3)nc2-c2cccc(C)c2)C1 (stereo not shown) [NCGC00437791-01] | 0.014
CN(C)c1cccc(C(=O)NC2CCN(c3cc(-c4ccc(Cl)cc4)n[nH]3)C2)c1 (stereo not shown) [NCGC00437918-01] | 0.0111
Cc1cc(F)ccc1OC1(C(=O)O)CCN(c2ncnc3[nH]cnc23)CC1 [NCGC00438333-01] | > 0.03
O=C(O)c1ccnc(-c2ccnc(NCCN3CCCCC3=O)n2)c1 [NCGC00438481-01] | 0.0111
CN(CCO)c1ccc(-c2nc(CCCc3ccccc3)no2)cn1 [NCGC00438483-01] | 0.0124
Cc1c(-c2ccccc2F)[nH]c2ccc(CNC(=O)C3C=CCN3)cc12 (stereo not shown) [NCGC00438963-01] | 0.0124
CCn1c(C2CCCN(C(=O)Nc3ccc4c(c3)OCCO4)C2)nn(C)c1=O (stereo not shown) [NCGC00439046-01] | 0.0111
Cc1c(-c2ccccc2)[nH]c2c(CNC(=O)C3=NN(C)C(=O)CC3)cc(Cl)cc12 [NCGC00439904-01] | 0.0124
COc1ccc(-c2cc3nc4c(c(=O)n3[nH]2)CN(C(=O)NCc2ccco2)CC4)cc1 [NCGC00440289-01] | 0.0111
OCC1(CC2CC2)CCCN(c2nc(-c3ccccc3)no2)C1 (stereo not shown) [NCGC00440394-01] | > 0.03
COCCNc1cc(-c2ccc3ccccc3n2)c2cc[nH]c2n1 [NCGC00440476-01] | 0.0124
O=C(Nc1nn(-c2cccc(F)c2)c2cccc(N3CCOCC3)c12)C1CCC1 [NCGC00440498-01] | 0.0111
c1ccc(CCCc2noc(-c3ccc(NCc4ccccn4)nc3)n2)cc1 [NCGC00440648-01] | > 0.03
CCc1nc(-c2ccc(OC3CCN(C(=O)C4CC4)C3)cc2)no1 (stereo not shown) [NCGC00440987-01] | 0.0124
O=C(c1ccncc1)N1CCC(Oc2ccc(-c3noc(-c4ccccc4)n3)cc2)C1 (stereo not shown) [NCGC00440993-01] | 0.0124
Cc1nc(C)c(C(=O)N2CCC(Oc3ccc(-c4noc(-c5ccccc5)n4)cc3)C2)s1 (stereo not shown) [NCGC00440995-01] | 0.0111
Cc1ncccc1C(=O)N1CCC(Oc2ccc(-c3noc(-c4ccccc4)n3)cc2)C1 (stereo not shown) [NCGC00440997-01] | 0.0111
O=C(c1ccccn1)N1CCC(Oc2ccc(-c3noc(-c4ccccc4)n3)cc2)C1 (stereo not shown) [NCGC00441001-01] | 0.0111

SMILES | IC50 [mM]
O=C(NCc1ccc(F)cc1)N1CC(Oc2ccc(-c3nc(-c4ccccc4)no3)cc2)C1 [NCGC00441109-01] | > 0.03
O=C(Nc1ccccc1)N1CC(Oc2ccc(-c3nc(-c4ccccc4)no3)cc2)C1 [NCGC00441117-01] | 0.0111
Cc1cc(CNC(=O)CC2C=C[S+](=O)([O-])C2)c2[nH]c(-c3ccccc3)c(C)c2c1 (stereo not shown) [NCGC00441154-01] | 0.0111
O=C(Cc1cccc(F)c1)N1CC(Oc2ccc(-c3nc(-c4ccccc4)no3)cc2)C1 [NCGC00441157-01] | 0.0124
O=C(O)C1(Oc2ccc3ccccc3c2)CCN(c2ncnc3[nH]cnc23)CC1 [NCGC00441641-01] | > 0.03
C[C@@H]1CN(c2cnc3ccccc3n2)CC[C@@]1(O)C1CCC1 [NCGC00441645-01] | 0.0111
Cc1c(-c2ccc(F)cc2)[nH]c2ccc(CNC(=O)CN3CCOC3=O)cc12 [NCGC00442659-01] | 0.0111
CNc1nc(C(=O)NCc2ccc3[nH]c(-c4ccc(F)cc4)c(C)c3c2)cs1 [NCGC00443141-01] | 0.0111
OC1(CN2CCCN(c3nc4ccccc4s3)CC2)CNCCOC1 (stereo not shown) [NCGC00443145-01] | > 0.03
Cc1cc(C)n(CCC(=O)N2CCC(Cc3noc(C4CC4)n3)C2)n1 (stereo not shown) [NCGC00443208-01] | > 0.03
c1ccc(CCCNc2nccc(-c3ccccn3)n2)nc1 [NCGC00443451-01] | > 0.03
COc1ccc2c(C)c(-c3nc(C4CCOC4)no3)oc2c1 (stereo not shown) [NCGC00443479-01] | > 0.03
NC(=O)[C@@H]1CCCN1C(=O)c1ccc2oc(-c3cccc(F)c3)nc2c1 [NCGC00444081-01] | > 0.03
O=C(NCCc1c[nH]cn1)c1ccc2nc(-c3ccc(F)cc3)cn2c1 [NCGC00444507-03] | 0.014
O=C(NCC1CCCN(C(=O)N2CCCC2)C1)c1ccc(-c2ccccc2)cc1 (stereo not shown) [NCGC00444515-01] | 0.0124
c1nc(N2C[C@@H](c3ccc4c(c3)OCO4)[C@@H]3[C@H]2C2CCN3CC2)c2nc[nH]c2n1 [NCGC00444647-01] | > 0.03
CCOc1cccc(-c2nc(C3CCOC3)no2)c1 (stereo not shown) [NCGC00445015-01] | > 0.03
COc1ccc(N2CCN(C(=O)Cn3cccc3-c3nc(-c4ccc5c(c4)OCO5)no3)CC2)cc1 [NCGC00445315-01] | > 0.03
Cc1ccc(C(=O)NCCn2cccc2-c2nc(-c3ccc4c(c3)OCO4)no2)cn1 [NCGC00445612-01] | 0.0111
Cc1cc(NCCc2cnccn2)nc(-c2ccccc2O)n1 [NCGC00445970-01] | > 0.03
c1ccc(COc2ccc(CN3CCSCC3)cc2)nc1 [NCGC00446150-01] | 0.0124
c1ccc(-c2ccnc(NCCc3c[nH]c4ccccc34)n2)nc1 [NCGC00446312-01] | 0.0197
Cc1nc2ccc(-c3nc(C4CCOC4)no3)cc2s1 (stereo not shown) [NCGC00446448-01] | 0.0111
CSCc1nc(-c2ccncc2)nn1Cc1ccc2c(c1)OCO2 [NCGC00447092-01] | > 0.03
Cc1ccc(-c2nc(C(=O)N(C)Cc3ccccc3)no2)cc1 [NCGC00447109-01] | 0.0124
Cc1ccc(-c2nc(C(=O)N3CCN(c4ccccc4)CC3)no2)cc1 [NCGC00447113-01] | 0.0111

The remaining compounds from weak to strong by IC50, led by results:

IC50 [mM] | SMILES
0.0111 | COc1cccc(-c2cc(C(=O)NCc3nc(-c4ccccc4)n[nH]3)[nH]n2)c1 [NCGC00437481-01]
0.00989 | COc1ccc(-c2cc(N3CCCC(NC(=O)c4cccs4)C3)[nH]n2)cc1 (stereo not shown) [NCGC00437586-01]
0.00989 | COc1ccc(-c2cc(N3CCCC(NC(=O)c4cc(OC)cc(OC)c4)C3)[nH]n2)cc1 (stereo not shown) [NCGC00437618-01]
0.00989 | CSCC(=O)Nc1nn(-c2ccc(F)cc2)c2cccc(N3CCOCC3)c12 [NCGC00439780-01]
0.00989 | CCn1ccnc1C1CCN(c2nc3ccccc3s2)CC1 [NCGC00442461-01]
0.00989 | CC1(Cc2ccc3c(c2)OCO3)CCCN(C(=O)c2ccc3ncsc3c2)C1 (stereo not shown) [NCGC00444241-01]
0.00989 | OCc1ccnc(-c2ccc(-c3ccn[nH]3)cc2)c1 [NCGC00444969-01]
0.00989 | O=C(NCCn1cccc1-c1nc(-c2ccc3c(c2)OCO3)no1)c1ccc(Cl)cc1 [NCGC00445582-01]
0.00989 | Cc1ccc(C2=NOC3(CCN(C(=O)c4cccc(N(C)C)c4)CC3)N2)cc1 [NCGC00446875-01]
0.00881 | O=C(NC1CCCN(c2cc(-c3ccc(F)cc3)n[nH]2)C1)c1ccc2ncccc2c1 (stereo not shown) [NCGC00437580-01]
0.00881 | Cc1ccc(-c2cc(N3CCC(CNC(=O)c4ccc5[nH]cnc5c4)CC3)[nH]n2)cc1 [NCGC00437766-01]
0.00881 | CCCn1ncc(-c2nc(-c3ccncc3)no2)c1C [NCGC00445972-01]
0.00785 | COc1ccc(-c2cc(N3CCCC(NC(=O)c4cccc(OC)c4)C3)[nH]n2)cc1 (stereo not shown) [NCGC00437636-01]
0.007 | CN(C)c1cccc(C(=O)NC2CCN(c3cc(-c4ccccc4)n[nH]3)C2)c1 (stereo not shown) [NCGC00437846-01]
0.007 | CCCc1ccc(-c2nc(C3CCOC3)no2)cc1 (stereo not shown) [NCGC00445403-01]
0.00624 | COc1ccc(-c2cc(N3CCCC(NC(=O)c4ccsc4)C3)[nH]n2)cc1 (stereo not shown) [NCGC00437662-01]
0.00624 | O=C(NC1CCN(c2cc(-c3ccc(F)cc3)n[nH]2)C1)c1cc2ccccc2[nH]1 (stereo not shown) [NCGC00437958-01]
0.00624 | Cc1ncccc1C(=O)N1CC(Oc2ccc(-c3nc(-c4ccccc4)no3)cc2)C1 [NCGC00441179-01]
0.00556 | COc1ccc(-c2cc(N3CCCC(NC(=O)c4cc(OC)c(OC)c(OC)c4)C3)[nH]n2)cc1 (stereo not shown) [NCGC00437614-01]
0.00556 | CCNC(=O)N1CC(Oc2ccc(-c3nc(-c4ccccc4)no3)cc2)C1 [NCGC00441125-01]
0.00556 | OC1CCCN(c2ccc(-c3nc(-c4cccc(C(F)(F)F)c4)no3)cn2)C1 (stereo not shown) [NCGC00441254-01]
0.00556 | c1c(-c2nc(C3CCOC3)no2)sc2c1CCCC2 (stereo not shown) [NCGC00443783-01]
0.00495 | COc1ccc(-c2cc(N3CCCC(NC(=O)c4ccc5[nH]ccc5c4)C3)[nH]n2)cc1 (stereo not shown) [NCGC00437714-01]
0.00442 | O=C(Nc1ccc2c(c1)OCCO2)C1CN([S+](=O)([O-])C2CC2)CC12CCCCC2 (stereo not shown) [NCGC00439803-01]
0.00394 | COc1ccc(-c2cc(N3CCCC(NC(=O)c4ccc(OC)c(OC)c4)C3)[nH]n2)cc1 (stereo not shown) [NCGC00437624-01]
0.00394 | COc1ccc(-c2cc(N3CCCC(NC(=O)c4ccc5ncccc5c4)C3)[nH]n2)cc1 (stereo not shown) [NCGC00437712-01]
0.00279 | c1ccc(-c2noc(-c3ccc(OC4CNC4)cc3)n2)cc1 [NCGC00441173-01]
0.00279 | COc1ccc(C(=O)NCCn2cccc2-c2nc(-c3ccccc3)no2)cc1 [NCGC00445570-01]
0.00176 | C[C@@H]1CN(c2nc(-c3ccccc3)no2)CC[C@@]1(O)C1CCC1 [NCGC00439928-01]
